Source: patent US12304813B2, “Sodium thiosulfate-containing pharmaceutical compositions” (Hope Medical Enterprises, Inc., priority 2009, dated 2025)

Assays:
[1] = tested on: platinum-induced nephrotoxicity; conditions: associated with platinum-containing chemotherapeutic agents; Current Opinions in Oncology 1995; cited from earlier work
vascular calcification = conditions: literature report, Kidney International 2008; cited from earlier work
[2] = tested on: platinum-induced ototoxicity; conditions: associated with platinum-containing chemotherapeutic agents; Current Opinions in Oncology 1995; cited from earlier work
calciphylaxis = conditions: literature report, Archives of Dermatology 2007; cited from earlier work
[3] = Example 1 batch
Protocol: In another embodiment, the sodium thiosulfate provided herein has a pH between about 6 to about 8 when measured in a 10% solution at 25° C. In certain embodiments, the pH of the sodium provided herein is measured using a pH meter. In certain embodiments, the pH of the sodium thiosulfate provided herein is determined according to Method 791 in USP XXXII (2009).

In the case of `O.O.O.O.O.O=S([O-])([O-])=S.[Na+].[Na+]` [sodium thiosulfate pentahydrate], the “treatment to prevent platinum-induced nephrotoxicity” value [1] is given as “effective treatment”, the “treatment for vascular calcification” value (vascular calcification) is given as “effective treatment” and the “treatment to prevent platinum-induced ototoxicity” value [2] is given as “effective treatment”. For the same molecule, the treatment for calciphylaxis (calciphylaxis) was “effective treatment” and the “pH of 10% solution at 25° C.” value [3] was 6.6.
